Results: ChEMBL document CHEMBL3885861, “Open TG-GATES”

Species on record: Rattus norvegicus
Assay: Open TG-GATES - Regimen: Single
Format: toxicity, organism-based, Sprague-Dawley
Design: regimen Single, gender Male, age 6 weeks
Details: in vivo, po, 5 mg/kg, route gavage; for TG / TP / gamma-GTP / A/G / ALP / ALT / AST / BUN / CRE / Ca / Cl / DBIL / GLC / IP / K / LDH / Na / PL / RALB / TBIL / TC: tissue Plasma; for APTT / Bas / Eos / Fbg / Hb / Ht / Lym / MCH / MCHC / MCV / Mono / Neu / PT / Plat / RBC / Ret / WBC: tissue Blood; for KIDNEY_L / KIDNEY_R / KIDNEY_TOTAL: tissue Kidney; for LIVER: tissue Liver

`COc1ccc2c(c1)c(CC(=O)O)c(C)n2C(=O)c1ccc(Cl)cc1` [INDOMETHACIN] was tested, and the TG (3 h, dose level Low) was 59.6 mg/dL, the TP (3 h, dose level Low) was 5.4 g/dL and the gamma-GTP (3 h, dose level Low) was 1 IU/L. It also gave a TERMINAL_BW (6 h, dose level High) of 202.4 g, a TERMINAL_BW (6 h, dose level Low) of 222.1 g and an APTT (6 h, dose level High) of 16.9 s. The Bas (6 h, dose level High) was 0%, the Eos (6 h, dose level High) was 0.8% and the Fbg (6 h, dose level High) was 205.2 mg/dL. For the same compound, the Hb (6 h, dose level High) was 12.7 g/dL, the Ht (6 h, dose level High) was 38.6% and the Lym (6 h, dose level High) was 69.4%. It also gave an MCH (6 h, dose level High) of 21.3 pg, an MCHC (6 h, dose level High) of 32.8% and an MCV (6 h, dose level High) of 64.9 fL. The Mono (6 h, dose level High) was 13%, the Neu (6 h, dose level High) was 16.8% and the PT (6 h, dose level High) was 12.8 s. For the same compound, the Plat (6 h, dose level High) was 112.7 x10_4/uL, the RBC (6 h, dose level High) was 594.6 x10_4/ul and the Ret (6 h, dose level High) was 10.3%. The WBC (6 h, dose level High) was 87.2 x10_2/uL, the APTT (6 h, dose level Low) was 18.4 s and the Eos (6 h, dose level Low) was 0.4%. It also gave a Fbg (6 h, dose level Low) of 230 mg/dL, a Hb (6 h, dose level Low) of 13.9 g/dL and a Ht (6 h, dose level Low) of 38%. The Lym (6 h, dose level Low) was 79.6%, the MCH (6 h, dose level Low) was 22.6 pg and the MCHC (6 h, dose level Low) was 36.4%. The MCV (6 h, dose level Low) was 62 fL, the Mono (6 h, dose level Low) was 2.8% and the Neu (6 h, dose level Low) was 15.4%. For the same compound, the PT (6 h, dose level Low) was 12.4 s, the Plat (6 h, dose level Low) was 118.2 x10_4/uL and the RBC (6 h, dose level Low) was 613.2 x10_4/ul. It also gave a Ret (6 h, dose level Low) of 8%, a WBC (6 h, dose level Low) of 100.8 x10_2/uL and a KIDNEY_L (6 h, dose level High) of 0.9 g. It also gave a KIDNEY_R (6 h, dose level High) of 0.9 g, a KIDNEY_TOTAL (6 h, dose level High) of 1.9 g and a KIDNEY_L (6 h, dose level Low) of 1 g. The KIDNEY_R (6 h, dose level Low) was 1 g, the LIVER (6 h, dose level High) was 9 g and the LIVER (6 h, dose level Low) was 9.1 g. For the same compound, the A/G (6 h, dose level High) was 1.9, the ALP (6 h, dose level High) was 908.6 IU/L and the ALT (6 h, dose level High) was 35.6 IU/L. The AST (6 h, dose level High) was 69 IU/L, the BUN (6 h, dose level High) was 13.6 mg/dL and the CRE (6 h, dose level High) was 0.5 mg/dL. It also gave a Ca (6 h, dose level High) of 10.2 mg/dL, a Cl (6 h, dose level High) of 108.2 meq/L and a DBIL (6 h, dose level High) of 0.014 mg/dL. It also gave a GLC (6 h, dose level High) of 194.8 mg/dL, an IP (6 h, dose level High) of 9.4 mg/dL and a K (6 h, dose level High) of 5.1 meq/L. It also gave an LDH (6 h, dose level High) of 186.4 IU/L, a Na (6 h, dose level High) of 137.4 meq/L and a PL (6 h, dose level High) of 120 mg/dL. It also gave an RALB (6 h, dose level High) of 3.8 g/dL, a TBIL (6 h, dose level High) of 0.3 mg/dL and a TC (6 h, dose level High) of 68.4 mg/dL. The TG (6 h, dose level High) was 48 mg/dL, the TP (6 h, dose level High) was 5.8 g/dL and the gamma-GTP (6 h, dose level High) was 1.2 IU/L. It also gave an A/G (6 h, dose level Low) of 1.5, an ALP (6 h, dose level Low) of 938.4 IU/L and an ALT (6 h, dose level Low) of 36.2 IU/L. For the same compound, the AST (6 h, dose level Low) was 75.8 IU/L, the BUN (6 h, dose level Low) was 12 mg/dL and the CRE (6 h, dose level Low) was 0.4 mg/dL. It also gave a Ca (6 h, dose level Low) of 10.4 mg/dL, a Cl (6 h, dose level Low) of 103.2 meq/L and a DBIL (6 h, dose level Low) of 0.076 mg/dL. The GLC (6 h, dose level Low) was 197.2 mg/dL, the IP (6 h, dose level Low) was 9.2 mg/dL and the K (6 h, dose level Low) was 4 meq/L. It also gave an LDH (6 h, dose level Low) of 231 IU/L, a Na (6 h, dose level Low) of 140.8 meq/L and a PL (6 h, dose level Low) of 135.2 mg/dL. For the same compound, the RALB (6 h, dose level Low) was 3.3 g/dL, the TBIL (6 h, dose level Low) was 0.1 mg/dL and the TC (6 h, dose level Low) was 77.4 mg/dL. The TG (6 h, dose level Low) was 62.8 mg/dL, the TP (6 h, dose level Low) was 5.4 g/dL and the gamma-GTP (6 h, dose level Low) was 0.8 IU/L. The TERMINAL_BW (9 h, dose level High) was 198.4 g, the TERMINAL_BW (9 h, dose level Low) was 221 g and the APTT (9 h, dose level High) was 16.9 s. It also gave a Bas (9 h, dose level High) of 0%, an Eos (9 h, dose level High) of 0.6% and a Fbg (9 h, dose level High) of 213.6 mg/dL. The Hb (9 h, dose level High) was 13.2 g/dL, the Ht (9 h, dose level High) was 39.6% and the Lym (9 h, dose level High) was 84.2%. It also gave an MCH (9 h, dose level High) of 21.6 pg, an MCHC (9 h, dose level High) of 33.3% and an MCV (9 h, dose level High) of 65 fL. The Mono (9 h, dose level High) was 7.8%, the Neu (9 h, dose level High) was 7.4% and the PT (9 h, dose level High) was 12.6 s. It also gave a Plat (9 h, dose level High) of 102.6 x10_4/uL, an RBC (9 h, dose level High) of 609.4 x10_4/ul and a Ret (9 h, dose level High) of 9.6%. It also gave a WBC (9 h, dose level High) of 107 x10_2/uL, an APTT (9 h, dose level Low) of 18.2 s and an Eos (9 h, dose level Low) of 0.4%. The Fbg (9 h, dose level Low) was 228.6 mg/dL, the Hb (9 h, dose level Low) was 13.7 g/dL and the Ht (9 h, dose level Low) was 37.7%. For the same compound, the Lym (9 h, dose level Low) was 76.4%, the MCH (9 h, dose level Low) was 22.2 pg and the MCHC (9 h, dose level Low) was 36.4%. It also gave an MCV (9 h, dose level Low) of 60.8 fL, a Mono (9 h, dose level Low) of 3% and a Neu (9 h, dose level Low) of 18%. It also gave a PT (9 h, dose level Low) of 12.2 s, a Plat (9 h, dose level Low) of 126.8 x10_4/uL and an RBC (9 h, dose level Low) of 620.4 x10_4/ul. For the same compound, the Ret (9 h, dose level Low) was 7.9%, the WBC (9 h, dose level Low) was 86 x10_2/uL and the KIDNEY_L (9 h, dose level High) was 0.9 g. For the same compound, the KIDNEY_R (9 h, dose level High) was 0.9 g, the KIDNEY_TOTAL (9 h, dose level High) was 1.9 g and the KIDNEY_R (9 h, dose level Low) was 1 g. For the same compound, the LIVER (9 h, dose level High) was 8.1 g, the LIVER (9 h, dose level Low) was 8.6 g and the A/G (9 h, dose level High) was 2.5. For the same compound, the ALP (9 h, dose level High) was 961.6 IU/L, the ALT (9 h, dose level High) was 34.6 IU/L and the AST (9 h, dose level High) was 66 IU/L. The BUN (9 h, dose level High) was 12.6 mg/dL, the CRE (9 h, dose level High) was 0.5 mg/dL and the Ca (9 h, dose level High) was 10.1 mg/dL. For the same compound, the Cl (9 h, dose level High) was 105.6 meq/L, the DBIL (9 h, dose level High) was 0.042 mg/dL and the GLC (9 h, dose level High) was 183.4 mg/dL. The IP (9 h, dose level High) was 9.8 mg/dL, the K (9 h, dose level High) was 5.3 meq/L and the LDH (9 h, dose level High) was 192.8 IU/L. The Na (9 h, dose level High) was 137.2 meq/L, the PL (9 h, dose level High) was 117 mg/dL and the RALB (9 h, dose level High) was 3.9 g/dL. The TBIL (9 h, dose level High) was 0.5 mg/dL, the TC (9 h, dose level High) was 65.6 mg/dL and the TG (9 h, dose level High) was 34.4 mg/dL. It also gave a TP (9 h, dose level High) of 5.4 g/dL.
